According to patent publication US12331041B2, “GLP-1 receptor agonists and uses thereof” (Pfizer Inc., priority 2018, dated 2025):
Structures can show the parent of a compound that is named as a salt.

Key:
human GLP-1R [1] = molecular target: T1, human GLP-1R (Homo sapiens, UniProt P43220, G168S); assay: CHO GLP-1R Clone H6 - Assay 1 (HTRF cAMP agonist assay); assay type: cell-based; conditions: for EC50: CHO Clone H6, high GLP-1R density, cAMP, geometric mean; for Emax: CHO Clone H6, relative to saturating full agonist GLP-1 7-36 (1 μM), arithmetic mean
T1 construct: expressed in transfected cells
T1 sequence (P43220 24-463 G168S): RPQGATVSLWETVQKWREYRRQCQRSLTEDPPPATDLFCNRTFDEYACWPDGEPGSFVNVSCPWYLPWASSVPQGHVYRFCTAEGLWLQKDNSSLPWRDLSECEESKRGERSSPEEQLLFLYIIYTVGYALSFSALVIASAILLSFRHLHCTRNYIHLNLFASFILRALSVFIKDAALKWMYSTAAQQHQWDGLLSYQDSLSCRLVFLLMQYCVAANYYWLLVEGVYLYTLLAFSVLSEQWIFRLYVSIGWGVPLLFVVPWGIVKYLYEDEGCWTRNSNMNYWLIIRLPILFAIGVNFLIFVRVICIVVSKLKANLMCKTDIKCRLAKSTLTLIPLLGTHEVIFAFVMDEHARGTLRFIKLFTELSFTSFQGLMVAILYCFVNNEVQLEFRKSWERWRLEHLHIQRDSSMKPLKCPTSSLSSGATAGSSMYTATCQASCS
Description: GLP-1R-mediated agonist activity was determined with a cell-based functional assay utilizing an HTRF (Homogeneous Time-Resolved Fluorescence) cAMP detection kit (cAMP HI Range Assay Kit; CisBio cat #62AM6PEJ) that measures cAMP levels in the cell. The method is a competitive immunoassay between native cAMP produced by the cells and exogenous cAMP labeled with the dye d2, The tracer binding is visualized by a mAb anti-cAMP labeled with Cryptate. The specific signal (i.e. energy transfer) is inversely proportional to the concentration of cAMP in either standard or experimental sample.
The human GLP-1R coding sequence (NCBI Reference Sequence NP_002053.3, including naturally-occurring variant Gly168Ser) was subcloned into pcDNA3 (Invitrogen) and a cell line stably expressing the receptor was isolated (designated Clone H6).
(§1) A 1 mL sample of the cell suspension in growth media was counted on a Becton Dickinson ViCell to determine cell viability and cell count per mL. The remaining cell suspension was then adjusted with growth media to deliver 2000 viable cells per well using a Matrix Combi Multidrop reagent dispenser, and the cells were dispensed into a white 384 well tissue culture treated assay plate (Corning 3570). The assay plate was then incubated for 48 hours at 37° C. in a humidified environment in 5% carbon dioxide.
Varying concentrations of each compound to be tested (in DMSO) were diluted in assay buffer (HBSS with Calcium/Magnesium (Lonza/BioWhittaker cat #10-527F)/0.1% BSA (Sigma Aldrich cat #A7409-1L)/20 mM HEPES (Lonza/BioWhittaker cat #17-737E) containing 100 μM 3-isobutyl-1-methylxanthin (IBMX; Sigma cat #15879). The final DMSO concentration is 1%.
After 48 hours, the growth media was removed from the assay plate wells, and the cells were treated with 20 μL of the serially diluted compound in assay buffer for 30 minutes at 37° C. in a humidified environment in 5% carbon dioxide. Following the 30 minute incubation, 10 μL of labeled d2 cAMP and 10 μL of anti-cAMP antibody (both diluted 1:20 in cell lysis buffer; as described in the manufacturer's assay protocol) were added to each well of the assay plate. The plates were then incubated at room temperature and after 60 minutes, changes in the HTRF signal were read with an Envision 2104 multi-label plate reader using excitation of 330 nm and emissions of 615 and 665 nm. Raw data were converted to nM cAMP by interpolation from a cAMP standard curve (as described in the manufacturer's assay protocol) and the percent effect was determined relative to a saturating concentration of the full agonist GLP-17-36 (1 μM) included on each plate. EC50 determinations were made from agonist dose-response curves analyzed with a curve fitting program using a 4-parameter logistic dose response equation.

human GLP-1R [2] = molecular target: T2, human GLP-1R (Homo sapiens, UniProt P43220, L260F); assay: CHO GLP-1R Clone C6 - Assay 2 (HTRF cAMP agonist assay); assay type: cell-based; conditions: for EC50: CHO clone C6, low GLP-1R density, cAMP, geometric mean; for Emax: CHO clone C6, relative to saturating full agonist GLP-1 (1 μM), arithmetic mean
T2 construct: expressed in transfected cells; host or cells: CHO Flp-In T-REx, clonal line C6 (pcDNA5-FRT-TO)
T2 sequence (P43220 24-463 L260F): as the sequence (P43220 24-463 G168S) above, with S145G, L237F counted along it
Description: GLP-1R-mediated agonist activity was determined with a cell-based functional assay utilizing an HTRF (Homogeneous Time-Resolved Fluorescence) cAMP detection kit (cAMP HI Range Assay Kit; Cis Bio cat #62AM6PEJ) that measures cAMP levels in the cell. The method is a competitive immunoassay between native cAMP produced by the cells and exogenous cAMP labeled with the dye d2. The tracer binding is visualized by a mAb anti-cAMP labeled with Cryptate. The specific signal (i.e. energy transfer) is inversely proportional to the concentration of cAMP in either a standard or an experimental sample.
The human GLP-1R coding sequence (NCBI Reference Sequence NP_002053.3, including naturally-occurring variant Leu260Phe) was subcloned into pcDNA5-FRT-TO and a clonal CHO cell line stably expressing a low receptor density was isolated using the Flp-In™ T-Rex™ System, as described by the manufacturer (ThermoFisher).
as §1, with “deliver 1600” for “deliver 2000”, “48 h” for “48 hours”, “environment (95% O2,” for “environment in”, “5% CO2)” for “5% carbon dioxide.”
Varying concentrations of each compound to be tested (in DMSO) were diluted in assay buffer [HBSS with Calcium/Magnesium (Lonza/BioWhittaker cat #10-527F)/0.1% BSA (Sigma Aldrich cat #A7409-1L)/20 mM HEPES (Lonza/BioWhittaker cat #17-737E)] containing 100 μM 3-isobutyl-1-methylxanthin (IBMX; Sigma cat #15879). The final DMSO concentration in the compound/assay buffer mixture is 1%.
After 48 h, the growth media was removed from the assay plate wells, and the cells were treated with 20 μL of the serially diluted compound in assay buffer for 30 min at 37° C. in a humidified environment (95% O2, 5% CO2). Following the 30 min incubation, 10 μL of labeled d2 cAMP and 10 μL of anti-cAMP antibody (both diluted 1:20 in cell lysis buffer; as described in the manufacturer's assay protocol) were added to each well of the assay plate. The plates were then incubated at room temperature and after 60 minutes, changes in the HTRF signal were read with an Envision 2104 multi-label plate reader using excitation of 330 nm and emissions of 615 and 665 nm. Raw data were converted to nM cAMP by interpolation from a cAMP standard curve (as described in the manufacturer's assay protocol) and the percent effect was determined relative to a saturating concentration of the full agonist GLP-1 (1 μM) included on each plate. EC50 determinations were made from agonist dose response curves analyzed with a curve fitting program using a 4-parameter logistic dose response equation.

Row | SMILES | EC50 (human GLP-1R [1]) [nM] | Emax (human GLP-1R [1]) [%] | EC50 (human GLP-1R [2]) [nM] | Emax (human GLP-1R [2]) [%]
1 | O=C(O)c1ccc2nc(CN3CCC(c4cccnc4OCc4ccc(Cl)cc4F)CC3)n(Cc3ncco3)c2n1 [Example 7, 2-[(4-{2-[(4-chloro-2-fluorobenzyl)oxy]pyridin-3-yl}piperidin-1-yl)methyl]-3-(1,3-oxazol-2-ylmethyl)-3H-imidazo[4,5-b]pyridine-5-carboxylic acid, trifluoroacetate salt] | 8.9 | 81 | 190 | 81
2 | O=C(O)c1ccc2nc(CN3CCC(c4cccnc4OCc4ccc(Cl)cc4F)CC3)n(C[C@H]3CCOC3)c2c1 [Example 8, 2-[(4-{2-[(4-chloro-2-fluorobenzyl)oxy]pyridin-3-yl}piperidin-1-yl)methyl]-1-[(3R)-tetrahydrofuran-3-ylmethyl]-1H-benzimidazole-6-carboxylic acid, trifluoroacetate salt] | 6 | 72 | 230 | 76
3 | COCCn1c(CN2CCC(c3cccnc3OCc3ccc(C#N)cc3F)CC2)nc2ccc(C(=O)O)cc21 [Example 9, 2-[(4-{2-[(4-cyano-2-fluorobenzyl)oxy]pyridin-3-yl}piperidin-1-yl)methyl]-1-(2-methoxyethyl)-1H-benzimidazole-6-carboxylic acid, trifluoroacetate salt] | 28 | 77 | 700 | 81
4 | O=C(O)c1ccc2nc(CN3CCC(c4cccnc4OCc4ccc(F)cc4F)CC3)n(C[C@@H]3CCO3)c2c1 [Example 12, ammonium 2-[(4-{2-[(2,4-difluorobenzyl)oxy]pyridin-3-yl}piperidin-1-yl)methyl]-1-[(2S)-oxetan-2-ylmethyl]-1H-benzimidazole-6-carboxylate] | 4.7 | 78 | 110 | 93
5 | N#Cc1ccc(COc2ncccc2C2CCN(Cc3nc4ccc(C(=O)O)cc4n3C[C@@H]3CCCO3)CC2)c(F)c1 [Example 13, 2-[(4-{2-[(4-cyano-2-fluorobenzyl)oxy]pyridin-3-yl}piperidin-1-yl)methyl]-1-[(2S)-tetrahydrofuran-2-ylmethyl]-1H-benzimidazole-6-carboxylic acid, trifluoroacetate salt] | 6 | 80 | 270 | 91
6 | O=C(O)c1ccc2nc(CN3CCC(c4cccnc4OCc4ccc(Cl)cc4F)CC3)n(CCN3CCOC3=O)c2c1 [Example 14, 2-[(4-{2-[(4-chloro-2-fluorobenzyl)oxy]pyridin-3-yl}piperidin-1-yl)methyl]-1-[2-(2-oxo-1,3-oxazolidin-3-yl)ethyl]-1H-benzimidazole-6-carboxylic acid, trifluoroacetate salt] | 14 | 77 | 540 | 120

These reach a lower EC50 (human GLP-1R [1]). Values come first.

Row | EC50 (human GLP-1R [1]) [nM] | Emax (human GLP-1R [1]) [%] | EC50 (human GLP-1R [2]) [nM] | Emax (human GLP-1R [2]) [%] | SMILES
7 | 4.5 | 68 | 84 | 83 | O=C(O)c1ccc2nc(CN3CCC(c4cccnc4OCc4ccc(Cl)cc4F)CC3)n(Cc3cnco3)c2c1 [Example 6, 2-[(4-{2-[(4-chloro-2-fluorobenzyl)oxy]pyridin-3-yl}piperidin-1-yl)methyl]-1-(1,3-oxazol-5-ylmethyl)-1H-benzimidazole-6-carboxylic acid, trifluoroacetate salt]
8 | 3.2 | 79 | 38 | 81 | O=C(O)c1ccc2nc(CN3CCC(c4cccnc4OCc4ccc(Cl)cc4F)CC3)n(Cc3ncco3)c2c1 [Example 2, 2-[(4-{2-[(4-chloro-2-fluorobenzyl)oxy]pyridin-3-yl}piperidin-1-yl)methyl]-1-(1,3-oxazol-2-ylmethyl)-1H-benzimidazole-6-carboxylic acid, trifluoroacetate salt]
9 | 3 | 77 | 40 | 98 | N#Cc1ccc(COc2ncccc2C2CCN(Cc3nc4ccc(C(=O)O)cc4n3Cc3ncco3)CC2)c(F)c1 [Example 4, 2-[(4-{2-[(4-cyano-2-fluorobenzyl)oxy]pyridin-3-yl}piperidin-1-yl)methyl]-1-(1,3-oxazol-2-ylmethyl)-1H-benzimidazole-6-carboxylic acid, trifluoroacetate salt]
10 | 1.9 | 83 | 49 | 100 | Cn1cncc1Cn1c(CN2CCC(c3cccnc3OCc3ccc(Cl)cc3F)CC2)nc2ccc(C(=O)O)cc21 [Example 11, 2-[(4-{2-[(4-chloro-2-fluorobenzyl)oxy]pyridin-3-yl}piperidin-1-yl)methyl]-1-[(1-methyl-1H-imidazol-5-yl)methyl]-1H-benzimidazole-6-carboxylic acid, trifluoroacetate salt]
11 | 0.99 | 87 | 18 | 130 | CCn1cncc1Cn1c(CN2CCC(c3cccnc3OCc3ccc(C#N)cc3F)CC2)nc2ccc(C(=O)O)cc21 [Example 16, 2-[(4-{2-[(4-cyano-2-fluorobenzyl)oxy]pyridin-3-yl}piperidin-1-yl)methyl]-1-[(1-ethyl-1H-imidazol-5-yl)methyl]-1H-benzimidazole-6-carboxylic acid, trifluoroacetate salt]
12 | 0.96 | 81 | 21 | 91 | CCn1cncc1Cn1c(CN2CCC(c3cccnc3OCc3ccc(Cl)cc3F)CC2)nc2ccc(C(=O)O)nc21 [Example 15, 2-[(4-{2-[(4-chloro-2-fluorobenzyl)oxy]pyridin-3-yl}piperidin-1-yl)methyl]-3-[(1-ethyl-1H-imidazol-5-yl)methyl]-3H-imidazo[4,5-b]pyridine-5-carboxylic acid, trifluoroacetate salt]
13 | 0.58 | 79 | 9 | 88 | CCn1cncc1Cn1c(CN2CCC(c3cccnc3OCc3ccc(Cl)cc3F)CC2)nc2ccc(C(=O)O)cc21 [Example 3, 2-[(4-{2-[(4-chloro-2-fluorobenzyl)oxy]pyridin-3-yl}piperidin-1-yl)methyl]-1-[(1-ethyl-1H-imidazol-5-yl)methyl]-1H-benzimidazole-6-carboxylic acid, trifluoroacetate salt]
